Results published in patent US11851449B2, “Heterocyclic amide compounds having an RORvt inhibitory action” (TAKEDA PHARMACEUTICAL COMPANY LIMITED, priority 2013, dated 2023).

How the values were obtained:
RORγt [1] = molecular target: T1, RORγt (Homo sapiens, UniProt P51449); test: RORγt binding test (TR-FRET, fluorescent-labeled cholesterol); conditions: read-out: binding inhibitory rate (%) of fluorescent-labeled cholesterol to RORγt at test compound 1 μM
T1 sequence (P51449 1-497 isoform P51449-2): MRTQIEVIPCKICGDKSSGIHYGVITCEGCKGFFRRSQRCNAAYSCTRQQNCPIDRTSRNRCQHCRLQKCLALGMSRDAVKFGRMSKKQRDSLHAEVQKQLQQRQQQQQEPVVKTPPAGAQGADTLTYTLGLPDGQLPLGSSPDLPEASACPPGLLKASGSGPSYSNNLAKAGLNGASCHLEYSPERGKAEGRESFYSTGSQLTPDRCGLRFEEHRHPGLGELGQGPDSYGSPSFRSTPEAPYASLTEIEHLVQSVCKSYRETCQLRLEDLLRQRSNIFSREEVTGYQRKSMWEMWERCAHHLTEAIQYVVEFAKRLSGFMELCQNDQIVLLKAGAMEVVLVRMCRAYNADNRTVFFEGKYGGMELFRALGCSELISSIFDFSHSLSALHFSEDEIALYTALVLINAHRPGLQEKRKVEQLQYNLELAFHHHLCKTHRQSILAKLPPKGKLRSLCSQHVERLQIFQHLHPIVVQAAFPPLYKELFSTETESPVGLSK
Protocol: The binding activity of the test compound to RORγt was measured by a time resolved fluorescence resonance energy transfer method (TR-FRET) utilizing histidine-tagged RORγt, fluorescent-labeled cholesterol (BODIPY-cholesterol, AVIVA), and terbium-labeled anti-histidine tag antibody (Invitrogen). First, a test compound diluted with an assay buffer (20 mM Tris-HCl (pH 7.5), 100 mM NaCl, 1 mM DTT, 0.1% BSA) was added to a 384 well plate by 3 μL. Then, RORγt diluted with an assay buffer to 240 nM was added by 3 μL, after which fluorescent-labeled cholesterol diluted with the assay buffer to 12 μM was added by 3 μL, and the mixture was stood at room temperature for 20 min. Thereafter, a terbium-labeled anti-histidine tag antibody diluted with the assay buffer to 8 nM was added by 3 μL. The mixture was stood at room temperature for 20 min, and fluorescence intensity (excitation wavelength 320 nm, fluorescence wavelength 520 nm, delay time 100 microseconds) was measured by Envision (PerkinElmer).

RORγt [2] = molecular target: T1, RORγt; test: Cofactor recruitment test (Alpha Screen, biotinylated SRC-1 peptide); assay type: biochemical; conditions: read-out: signal value inhibitory rate (%) at test compound 1 μM
Protocol: Cofactor Recruitment Test
Cofactor recruitment test was performed by Alpha Screen (Histidine Detection Kit, PerkinElmer) method. First, a test compound was diluted with an assay buffer (50 mM Tris-HCl (pH 7.5), 50 mM KCl, 1 mM DTT, 0.1% BSA) and added to a 384 well plate by 5 μL. […] The mixture was stood in a dark place for 1 hr, and the signal value was measured by Envision (PerkinElmer).

RORγt [3] = molecular target: T1, RORγt; test: Jurkat reporter test (human IL-17 ROR response element luciferase reporter); assay type: cell-based; conditions: Jurkat, read-out: luminescence level inhibitory rate (%) at test compound 3 μM
Protocol: The Jurkat cells used for the reporter test were cultured in a culture medium (RPMI (Invitrogen), 10% FCS (AusGeneX), 100 U/mL penicillin, 100 μg/mL streptomycin). On the day of the test, 4×10^7 cells were recovered by a centrifugal operation (1000 rpm, 5 min.) and suspended in PBS (phosphate buffered saline) (Invitrogen). Thereafter, the cells were recovered again by a centrifugal operation, and suspended in 2 mL of R buffer (NEON transfection kit, Invitrogen). […] Gene transfer was performed by Electroporation apparatus (NEON, Invitrogen) under the conditions of pulse voltage 1350 V, interval 10 milliseconds, number of times 3. The cells after gene transfer were suspended in 40 mL of a reaction medium (RPMI, 10% Lipid reduced FCS (HyClone), 10 mM HEPES (pH 7.5), 100 U/mL penicillin, 100 μg/mL streptomycin, 5 μM lovastatin), and plated in a 96 well plate by 90 μL. A test compound diluted with the reaction medium was added by 10 μL, and the cells were cultured overnight in an incubator. Bright-Glo (Promega) was added by 100 μL, and the mixture was stirred at room temperature for 10 min, and the luminescence level was measured by Envision (PerkinElmer).

Row | Compound | inhibition at 1 µM (RORγt [1]) | inhibition at 1 µM (RORγt [2]) | inhibition at 3 µM (RORγt [3])
1 | COCc1ccc([C@@H](NC(=O)Cc2nnc(C)o2)C(=O)Nc2cc(F)c([Si](C)(C)C)c(F)c2)cc1 [Example 74, (2R)—N-(3,5-difluoro-4-(trimethylsilyl)phenyl)-2-(4-(methoxymethyl)phenyl)-2-(((5-methyl-1,3,4-oxadiazol-2-yl)acetyl)amino)acetamide] | 101% | 97.6% | 99.4%
2 | COCc1ccc([C@@H](NC(=O)[C@H]2CNC(=O)C2)C(=O)Nc2cc(F)c([Si](C)(C)C)c(F)c2)cc1 [Example 68, (3R)—N-((1R)-2-((3,5-difluoro-4-(trimethylsilyl)phenyl)amino)-1-(4-(methoxymethyl)phenyl)-2-oxoethyl)-5-oxopyrrolidine-3-carboxamide] | 101% | 96.2% | 98.7%
3 | COCc1ccc([C@@H](NC(=O)Cn2ccc(=O)cn2)C(=O)Nc2ccc([Si](C)(C)C)c(F)c2)cc1 [Example 63, (2R)—N-(3-fluoro-4-(trimethylsilyl)phenyl)-2-(4-(methoxymethyl)phenyl)-2-(((4-oxopyridazin-1(4H)-yl)acetyl)amino)acetamide] | 103% | 95.1% | 99.7%
4 | COCc1ccc([C@@H](NC(=O)Cn2c(=O)cc[nH]c2=O)C(=O)Nc2ccc([Si](C)(C)C)c(F)c2)cc1 [Example 60, (2R)-2-(((2,6-dioxo-3,6-dihydropyrimidin-1 (2H)-yl)acetyl)amino)-N-(3-fluoro-4-(trimethylsilyl)phenyl)-2-(4-(methoxymethyl)phenyl)acetamide] | 102% | 96.6% | 99.7%
5 | Cc1nnc(CC(=O)NC(C(=O)Nc2cc(F)c([Si](C)(C)C)c(F)c2)C2CCOCC2)o1 (stereo not drawn) [Example 2, N-(3,5-difluoro-4-(trimethylsilyl)phenyl)-2-(((5-methyl-1,3,4-oxadiazol-2-yl)acetyl)amino)-2-(tetrahydro-2H-pyran-4-yl)acetamide] | 102% | 78% | 98.1%
6 | C[Si](C)(C)c1ccc(NC(=O)C(NC(=O)[C@@H]2CNC(=O)C2)C2CCC(F)(F)CC2)cc1F (stereo partly drawn) [Example 5, (3S)—N-(1-(4,4-difluorocyclohexyl)-2-((3-fluoro-4-(trimethylsilyl)phenyl)amino)-2-oxoethyl)-5-oxopyrrolidine-3-carboxamide] | 100% | 84.8% | 98%
7 | COCc1ccc([C@@H](NC(=O)Cn2cnccc2=O)C(=O)Nc2cc(F)c([Si](C)(C)C)cc2F)cc1 [Example 57, (2R)—N-(2,5-difluoro-4-(trimethylsilyl)phenyl)-2-(4-(methoxymethyl)phenyl)-2-(((6-oxopyrimidin-1(6H)-yl)acetyl)amino)acetamide] | 103% | 97.3% | 98.9%
8 | CCNC(=O)N[C@@H](C(=O)Nc1ccc([Si](C)(C)C)c(F)c1)c1ccc(COC)cc1 [Example 90, (2R)-2-((ethylcarbamoyl)amino)-N-(3-fluoro-4-(trimethylsilyl)phenyl)-2-(4-(methoxymethyl)phenyl)acetamide] | 102% | 96% | 101%
9 | COc1ccc([C@@H](NC(=O)c2cc(O)no2)C(=O)Nc2cc(F)c([Si](C)(C)C)c(F)c2)cc1 [Example 99, N-((1R)-2-((3,5-difluoro-4-(trimethylsilyl)phenyl)amino)-1-(4-methoxyphenyl)-2-oxoethyl)-3-hydroxy-1,2-oxazole-5-carboxamide] | 102% | 94.3% | 99.9%
10 | COCc1ccc([C@@H](NC(=O)C2CCN(C(C)=O)CC2)C(=O)Nc2ccc([Si](C)(C)C)c(F)c2)cc1 [Example 87, 1-acetyl-N-((1R)-2-((3-fluoro-4-(trimethylsilyl)phenyl)amino)-1-(4-(methoxymethyl)phenyl)-2-oxoethyl)piperidine-4-carboxamide] | 102% | 83.9% | 98.2%
11 | COc1ccc([C@@H](NC(=O)c2cc(O)no2)C(=O)Nc2ccc([Si](C)(C)C)c(F)c2)cc1 [Example 83, N-((1R)-2-((3-fluoro-4-(trimethylsilyl)phenyl)amino)-1-(4-methoxyphenyl)-2-oxoethyl)-3-hydroxy-1,2-oxazole-5-carboxamide] | 100% | 86.5% | 63.2%
12 | COCc1ccc([C@@H](NC(=O)[C@@H]2CNC(=O)C2)C(=O)Nc2ccc([Si](C)(C)C)c(F)c2)cc1 [Example 49, (3S)—N-((1R)-2-((3-fluoro-4-(trimethylsilyl)phenyl)amino)-1-(4-(methoxymethyl)phenyl)-2-oxoethyl)-5-oxopyrrolidine-3-carboxamide] | 101% | 96.9% | 98.4%
13 | COCc1ccc([C@@H](NC(=O)CNC(C)=O)C(=O)Nc2ccc([Si](C)(C)C)c(F)c2)cc1 [Example 86, N^2-acetyl-N-((1R)-2-((3-fluoro-4-(trimethylsilyl)phenyl)amino)-1-(4-(methoxymethyl)phenyl)-2-oxoethyl)glycinamide] | 102% | 95.2% | 99.1%
14 | COCc1ccc([C@@H](NC(=O)CC2CCOCC2)C(=O)Nc2ccc([Si](C)(C)C)c(F)c2)cc1 [Example 89, (2R)—N-(3-fluoro-4-(trimethylsilyl)phenyl)-2-(4-(methoxymethyl)phenyl)-2-((tetrahydro-2H-pyran-4-ylacetyl)amino)acetamide] | 103% | 95.5% | 101%
15 | COCc1ccc(C(NC(=O)Cc2nnc(C)o2)C(=O)Nc2ccc([Si](C)(C)C)c(F)c2)cc1 (stereo not drawn) [Example 35, N-(3-fluoro-4-(trimethylsilyl)phenyl)-2-(4-(methoxymethyl)phenyl)-2-(((5-methyl-1,3,4-oxadiazol-2-yl)acetyl)amino)acetamide] | 103% | 96.6% | 101%
16 | COc1ccc(C(NC(=O)C2CNC(=O)C2)C(=O)Nc2ccc([Si](C)(C)C)cc2)cc1 (stereo not drawn) [Example 13, N-(1-(4-methoxyphenyl)-2-oxo-2-((4-(trimethylsilyl)phenyl)amino)ethyl)-5-oxopyrrolidine-3-carboxamide] | 101% | 51.1% | 92.6%
17 | COCc1ccc(C(NC(=O)C2CNC(=O)C2)C(=O)Nc2ccc([Si](C)(C)C)c(C#N)c2)cc1 (stereo not drawn) [Example 26, N-(2-((3-cyano-4-(trimethylsilyl)phenyl)amino)-1-(4-(methoxymethyl)phenyl)-2-oxoethyl)-5-oxopyrrolidine-3-carboxamide] | 103% | 99.5% | 97.6%
18 | COCc1ccc([C@@H](NC(=O)Cn2cnccc2=O)C(=O)Nc2cc(F)c([Si](C)(C)C)c(F)c2)cc1 [Example 58, (2R)—N-(3,5-difluoro-4-(trimethylsilyl)phenyl)-2-(4-(methoxymethyl)phenyl)-2-(((6-oxopyrimidin-1(6H)-yl)acetyl)amino)acetamide] | 102% | 97.1% | 98.4%
